Converted amounts (≈) assume the structure as drawn. Read-outs that look alike come from different tables or passages of the source.
Columns and labels:
[1] = system: S. aureus strain ATCC 6538; test: MIC test (CLSI M7-A6 dilution), S. aureus ATCC 6538; assay type: cell-based, Staphylococcus aureus; details: for MIC: Staphylococcus aureus
Staphylococcus aureus = test: Antibiotic activity towards Staphylococcus aureus (summary statements); assay type: cell-based; details: statement in words
S. aureus TTC 03.0236 = test: MIC test (CLSI M7-A6 dilution), S. aureus TTC 03.0236; assay type: cell-based; details: Staphylococcus aureus, TTC03.0236; single strain; TTC is internal collection number
Procedure: (§1) MIC test were performed according to standard methodology: M7-A6-“Methods for Dilution Antimicrobial Susceptibility Tests for Bacteria That Grow Aerobically”; Approved Standard, Sixth Edition Clinical and Laboratory Standards Institute 2005 (CLSI/formerly NCCLS).

S. aureus TTC 03.0239 = test: MIC test (CLSI M7-A6 dilution), S. aureus TTC 03.0239; assay type: cell-based; details: Staphylococcus aureus, TTC03.0239; single strain; TTC is internal collection number
Procedure: as §1

S. epidermis = test: MIC test (CLSI M7-A6 dilution), S. epidermis; assay type: cell-based; details: single strain
Procedure: as §1

[2] = ATCC6538, Table II, Example 3, read-out: MIC S. aureus ATCC 6538
[3] = ATCC6538, single strain, Table I, read-out: MIC S. aureus ATTC 6538

SMILES | MIC [1, 2] | MIC S. aureus ATCC 6538 ([1]; Table II, Example 3) | antibiotic activity towards Staphylococcus aureus (Staphylococcus aureus) | efficacy as antimicrobial agents (Staphylococcus aureus) | further results
Cc1ccccc1-n1nnnc1C(Cl)(Cl)C(=O)Nc1ccccc1 [NewCo 0058, 2,2-dichloro-N-phenyl-2-(1-o-tolyl-1H-tetrazol-5-yl)-acetamide] | 0.39 µg/mL (≈ 1.08 µM) |  | most notable | exceptionally good | 
CN[C@H](CC(C)C)C(=O)N[C@H]1C(=O)N[C@@H](CC(N)=O)C(=O)N[C@H]2C(=O)N[C@H]3C(=O)N[C@H](C(=O)N[C@H](C(=O)O)c4cc(O)cc(O)c4-c4cc3ccc4O)[C@H](O)c3ccc(c(Cl)c3)Oc3cc2cc(c3O[C@@H]2O[C@H](CO)[C@@H](O)[C@H](O)[C@H]2O[C@H]2C[C@](C)(N)[C@H](O)[C@H](C)O2)Oc2ccc(cc2Cl)[C@H]1O [Vancomycin, reference compound] |  |  |  |  | MIC ([1]; ATCC6538, read-out: MIC S. aureus ATCC 6538): 0.78 µg/mL (≈ 0.538 µM)
Cc1ccccc1-n1nnnc1C(Cl)(Cl)C(=O)NC1CCNCC1 [NewCo 0062, 2,2-dichloro-N-piperidin-4-yl-2-(1-O— tolyl-1H-tetrazol-5-yl)-acetamide] |  | 50 µg/mL (≈ 135 µM) |  |  | 
COc1ccccc1NC(=O)C(Cl)(Cl)c1nnnn1-c1ccccc1OC [NewCo0053, N1-(2-methoxyphenyl)-2,2-dichloro-2-[1-(2-methoxyphenyl)-1H-1,2,3,4-tetraazol-5-yl]acetamide] |  |  | most notable | exceptionally good | MIC [1, 3]: 0.78 µg/mL (≈ 1.91 µM); MIC (S. aureus TTC 03.0236): 0.78 µg/mL (≈ 1.91 µM); MIC (S. aureus TTC 03.0239): 1.56 µg/mL (≈ 3.82 µM); MIC (S. epidermis): 0.78 µg/mL (≈ 1.91 µM)
O=C(Nc1ccccc1)C(Cl)(Cl)c1nnnn1-c1ccccc1 [NewCo0052, N1-phenyl-2,2-dichloro-2-(1-phenyl-1H-1,2,3,4-tetraazol-5-yl)acetamide] |  |  | most notable | exceptionally good | MIC [1, 3]: 1.56 µg/mL (≈ 4.48 µM); MIC (S. aureus TTC 03.0236): 1.56 µg/mL (≈ 4.48 µM); MIC (S. aureus TTC 03.0239): 1.56 µg/mL (≈ 4.48 µM); MIC (S. epidermis): 0.78 µg/mL (≈ 2.24 µM)
Cc1ccccc1-n1nnnc1C(Cl)(Cl)C(=O)N1CCNCC1 [NewCo 0060, 2,2-dichloro-1-piprazin-1-yl-2-(1-o-tolyl-1H-tetrazol-5-yl)-ethanone] |  | 12.5 µg/mL (≈ 35.2 µM) |  |  | 

Second part, led by results:

MIC [1, 2] | MIC S. aureus ATCC 6538 ([1]; Table II, Example 3) | SMILES | antibiotic activity towards Staphylococcus aureus (Staphylococcus aureus) | efficacy as antimicrobial agents (Staphylococcus aureus) | further results
 | 100 µg/mL (≈ 318 µM) | Cc1ccccc1-n1nnnc1C(Cl)(Cl)C(=O)N(C)C [NewCo 0064, 2-dichloro-N,N-dimethyl-2-(1-o-tolyl-1H-tetrazol-5-yl)-acetamide] |  |  | 
1.56 µg/mL (≈ 5.45 µM) |  | Cc1ccccc1-n1nnnc1C(Cl)(Cl)C(N)=O [NewCo 0063, 2,2-dichloro-2-(1-o-tolyl-1H-tetrazol-5-yl)-acetamide] | most notable | exceptionally good | 
0.78 µg/mL (≈ 2.15 µM) |  | Cc1ccccc1-n1nnnc1C(Cl)(Cl)C(=O)Nc1ccncc1 [NewCo 0061, 2,2-dichloro-N-pyridin-4-yl-2-(1-o-tolyl-1H-tetrazol-5-yl)-acetamide] | most notable | exceptionally good | 
25 µg/mL (≈ 76.2 µM) |  | Cc1ccccc1-n1nnnc1C(Cl)(Cl)C(=O)NC(C)C [NewCo 0059, 2,2-dichloro-N-isopropyl-2-(1-o-tolyl-1H-tetrazol-5-yl)-acetamide] |  |  | 

Reference: patent publication US20100130509A1, “NOVEL ANTIBIOTICS” (Nederlandse Organisatie voor toegepast-natuurwe- …, priority 2007, published 2010)
